Source: US11091429B2, “Organic compounds” (Givaudan SA, priority 2012, dated 2021)
Entries after “also recorded” stand apart in the source; their conditions may differ.

Tests used:
[1] = Test in peach flavoured drink; conditions: 1 ppm; water, 8% sugar, 0.1% citric acid, peach flavour 0.05%
Procedure: (§1) Samples were prepared and evaluated by expert tasters. Tasters were asked to describe the samples focusing on authentic taste, mouthfeel, fullness, salty-ness, salivation, umami, sweetness, juiciness, richness, long lastingness and fattiness.
Test in Peach Flavoured Drink:
Base is water, 8% sugar, 0.1% citric acid, and proprietary peach flavour at 0.05%
(§2) Samples were evaluated by expert tasters. Tasters were asked to describe the samples focusing on authentic taste, mouthfeel, fullness, salty-ness, salivation, umami, sweetness, juiciness, richness, long lastingness and fattiness.
Comparison in a Peach Drink
Base is water, 8% sugar, 0.1% citric acid, proprietary peach flavour at 0.05%
Samples were evaluated by expert tasters. Tasters were asked to describe the samples focusing on authentic taste, mouthfeel, fullness, salivation, salty-ness, umami, sweetness, juiciness, richness, long lastingness and fattiness.

Test on mouthwash = conditions: 1 ppm, Paradontax alcohol free mouthwash
Procedure: as §2
Base: Paradontax alcohol free mouthwash.

Tasting in butter = conditions: 1 ppm in Blueband butter 82% fat 1.5% salt
Procedure: (§3) The following formulations were prepared and tasted by trained panelists.
Blueband 82% fat 1.5% salt

Tasting in pilaf = conditions: cooked rice with 10% of the butter flavoured at 1 ppm
Procedure: as §3

Test in 3 in 1 coffee = conditions: 1 ppm, 3-in-1 coffee beverage, sucrose 13.2%, creamer (2.1% fat)
Procedure: In a 3 in 1 Coffee beverage from Nestle (market product) sweetened with sucrose 13.2% and containing creamer (2.1% fat) C18:2-gaba was added.
(§4) Samples were evaluated by expert tasters. Tasters were asked to describe the samples focusing on authentic taste, mouthfeel, fullness, salivation, sweetness, juiciness, richness, long lastingness and fattiness.
Base is 3-in-1 Coffee beverage (market product) sweetened with sucrose and containing creamer with fat

Test on Tang = conditions: 0.5 ppm, orange flavoured Tang
Procedure: In an orange flavoured Tang powdered soft drink (market product) sweetened with sucrose plus high intensity sweetener and containing citric acid, C18:2-gaba and C18:2-pro were tested.
All samples were evaluated by expert tasters. Tasters were asked to describe the samples focusing on authentic taste, mouthfeel & body, enhancement, richness, juiciness, long lastingness, salivation, sweetness, masking off notes of high intensity sweetener
Base is Orange Flavoured Tang

[2] = Test in pineapple flavoured drink; conditions: 1 ppm; water, 8% sugar, 0.1% citric acid, pineapple flavour 0.03%
Procedure: as §1
Test in Pineapple Flavoured Drink:
Base is water, 8% sugar, 0.1% citric acid and proprietary pineapple flavour at 0.03%
as §2

Tasting of baked pizza = conditions: 0.5 PPM in the crust and 0.5 PPM in the tomato sauce, baked at 200 degrees Celsius
Procedure: as §3
Differentiator high temperature 100-250 degrees Celsius in hot air baking process
C18:2 gaba @ 0.5 PPM in the crust and @ 0.5 PPM in the tomato sauce
The pizza was topped off with cheese and baked in a hot air oven @ 200 degrees Celsius

[3] = Tasting in chocolate milk
Procedure: Chocolate Milk with Different Fat Content […]
as §4

Test on menthol fondant = conditions: 2 ppm; fondant 65%, sugar syrup 34%, menthol flavour 1%
Procedure: as §1
Test on Menthol Fondant (1%1
Base is Fondant 65%, sugar syrup 34% and a proprietary menthol flavour at 1%

[4] = Tasting in beef bouillon base; conditions: 0.5 PPM in beef bouillon base 1.0% salt, 0.5% fat
Procedure: as §3
Beef Bouillon base 1.0% salt, 0.5% fat

[5] = Tasting in Activa strawberry yoghurt; conditions: 2 ppm, 13.5% sugar, 3.2% fat
From the text: Activa Strawberry Yoghurt
In a Full fat, Activa strawberry flavoured yoghurt containing 13.5% sugar, 3.2% fat C18:2-gaba and C18:0-leu at 2 ppm

[6] = Tasting of chicken filet fried in oil
Procedure: as §3
Differentiator high temperature 100-250 degrees Celsius in a frying in oil process
C18:2 gaba @ 2.0 PPM in 135 gram frying oil (blue band 82% Fat) 450 gram chicken filet 2 minutes high fire and 5 minutes medium fire.

[7] = Tasting in low fat salad dressing; conditions: 0.5 ppm in low fat salad dressing (13.6% fat)
Procedure: as §3
low fat salad dressing (13.6% Fat, 8%, carbohydrates (of which 5.3% sugar))
as §1
Calve Salad Dressing Low Fat (13.6% Fat):
Base is Calve salad dressing (market product)
(§5) Samples were prepared and evaluated by expert tasters. Tasters were asked to describe the samples focusing on authentic taste, mouthfeel, fullness, salivation, salty-ness, umami, sweetness, juiciness, richness, long lastingness and fattiness.
Low fat salad dressing (13.6% Fat)

[8] = Tasting in low fat mayonnaise
Procedure: as §3
Low fat Mayonnaise (27% Fat, 9% carbohydrates (of which 5% sugar), 1.4% salt)
as §1
Calve 60% Reduced Fat Mayonnaise
Base is Calve Mayonnaise 60% reduced fat (market Product)
as §5
Low fat Mayonnaise (27% Fat)

Tasting in soy milk = conditions: 2 ppm, soy milk (1.8% fat), 5% sucrose, milk flavour 0.1%
Procedure: In a soy milk (1.8% fat) sweetened with 5% sucrose by weight, flavoured with a proprietary milk flavour ata dosage of 0.1%, C18:2-gaba was added at 2 ppm
as §4

[9] = Test on organic acids in a beverage; conditions: 1 ppm, water, 7% sucrose
Procedure: 14—Testing with Beverages Containing Organic Acids from 0.01% to 7%
Test 18:2 Gaba on Organic Acids in a Beverage.
In a solution containing water, 7% sucrose by weight, and different organic acids, 18:2 gaba was added at 1 ppm. We observed taste effects on the acid perception upon addition of 18:2 gaba.
Base is water, 7% Sucrose by weight, Tartaric acid at 0.121% by weight
Base is water, 7% Sucrose by weight, Malic acid at 0.1081% by weight
Base is water, 7% Sucrose by weight, Citric acid at 0.1% by weight
Base is water, 7% Sucrose by weight, Fumaric acid at 0.0936% by weight

## CCCCC/C=C\C/C=C\CCCCCCCC(=O)NCCCC(=O)O [C18:2-gaba]
[1]
  tasting result: fruity peach, long lasting, juicy and fatty skin like very authentic
Test on mouthwash
  tasting result: much less bitter, very sweet, smooth, less burning, round spicy, more minty and more cooling
Tasting in butter
  tasting result: more authentic butter taste, with more mouthfeel
Tasting in pilaf
  tasting result: more mouthfeel, with a lingering creamy authentic butter taste
Test in 3 in 1 coffee
  tasting result: very nice mouthfeel effect, creamy as if coffee creamer is added, more sweet
Test on Tang
  tasting result: enhances sweet juicy orange notes, enhanced mouthfeel; also recorded: the off-notes of the high intensity sweetener were suppressed
[2]
  tasting result: very ripe, jammy, long lasting and sweet
Tasting of baked pizza
  tasting result: The crust was less dry, more succulent and the tomato was richer, sweeter and the total lingering aftertaste was very rich and pleasant
[3]; 0.5 ppm, chocolate milk 1.8% fat
  tasting result: stronger cocoa note, more chocolate vs cocoa
[3]; 0.5 ppm, chocolate milk 3% fat
  tasting result: very creamy, enhanced cocoa note
[3]; 1 ppm, chocolate milk 1.8% fat
  tasting result: very creamy, chocolate, long-lasting creamy and chocolate taste
[3]; 1 ppm, chocolate milk 3% fat
  tasting result: very creamy, lasting, sweet, almost taste like chocolate ice cream
Test on menthol fondant
  tasting result: increased menthol impact, stronger cooling more sweet, long lasting, fresh
[4]
  tasting result: Strong, Salty, Umami, mouthfeel
[5]
  tasting result: very creamy, full and fresh strawberry
[6]; 2.0 PPM in 135 gram frying oil (blue band 82% Fat)
  taste of the frying oil: more savoury golden brown notes
[6]; 2.0 PPM in 135 gram frying oil, 450 gram chicken filet, 2 minutes high fire and 5 minutes medium fire
  taste of the chicken: more juicy, succulent, lingering more white meat
[7]
  tasting result: much fuller, creamy, rich, less acidic
[7]; listed as C18:2 gaba
  tasting result: better mouthfeel that was impressively creamy
[8]; 0.5 ppm in Calve Mayonnaise 60% reduced fat
  tasting result: full, rich, creamy, more egg yolk taste
[8]; 0.5 ppm in low fat mayonnaise (27% fat)
  tasting result: creamy, thick mouthfeel with a full fat impression
Tasting in soy milk
  tasting result: clean, creamy, good masking of the soy bean taste, creamy and milky
[9]; citric acid 0.1% by weight
  tasting result: decreased sharp acidic perception, full body mouth feel, higher higher mouthwatering, and an impression of the juicy notes of citrus fruit (orange, lemon)
[9]; fumaric acid 0.0936% by weight
  tasting result: decreased sharp acidic perception, full body mouthfeel effects, higher sweet effects, and an impression of the full notes characteristic of sweet red & vanillic flavor types (vanilla, chocolate, raspberry, cherry, especially benzaldhyde)
[9]; malic acid 0.1081% by weight
  tasting result: decreased sharp acidic perception, give fuller body, mouthfeel, higher mouthwatering, and an impression of the flesh and skin notes of fruit (apple)
[9]; tartaric acid 0.121% by weight
  tasting result: decreased sharp acidic perception, full body mouthfeel, higher mouthwatering, more immediate (upfront hit), and an impression of the flesh of fruit (grape, apple, banana, pear-like)
